Values of other authors in patent US20120022018A1, “ANTI-VIRAL PROPERTIES OF ALOE VERA AND ACQUIRED IMMUNE DEFICIENCY SYNDROME (AIDS) TREATMENT” (NORTH TEXAS MEDICAL ASSOCIATES, priority 2010, published 2012).

Legend:
[1] = tested on: New Castle and paramyxoviruses; details: New Castle and paramyxoviruses in culture; altered envelope glycoproteins
[2] = tested on: HIV-1 envelope glycoprotein; details: HIV-1 infected monocytes cultures; instead of usual GP-160, GP-120, GP-41 bands
[3] = tested on: monocytic/macrophagic (M/M) cell counts; details: in vivo

Acemannan
effect on infectivity of virions [1]: rendered the virions incapable of infecting susceptible target cell lines as well as animals | effect on HIV-1 envelope glycoprotein [2]: induced the production of multiple molecular weights of HIV-1 envelope glycoprotein | monocytic/macrophagic (M/M) cell counts [3]: increase
